# Assay results as given in PubChem BioAssay (NCI).
#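 Grown in 96-well plates, cells were treated for 48 hours with each compound at five concentrations. Insufficient inhibition: endpoint recorded as highest concentration tested. TGI denotes the concentration required for complete inhibition of growth.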
# How the values were obtained:
# Assay in all cases: NCI tumour cell line growth inhibition, 48 h
# [1] = system: HOP-92 NSCLC
# [2] = system: MCF7 breast
# [3] = system: NCI/ADR-RES ovarian
# [4] = system: SF-295 CNS
# [5] = system: OVCAR-5 ovarian
# [6] = system: SNB-19 CNS
# [7] = system: NCI-H460 lung
# [8] = system: RXF 393 renal
# [9] = system: HT29 colon
# [10] = system: HL-60(TB) leukemia
# [11] = system: SR leukemia
# [12] = system: TK-10 renal
# [13] = system: HCT-116 colon
# [14] = system: EKVX NSCLC
# [15] = system: PC-3 prostate
# [16] = system: UACC-257 melanoma
# [17] = system: CCRF-CEM leukemia
# [18] = system: COLO 205 colon
# [19] = system: DU-145 prostate
# [20] = system: NCI-H226 lung
# [21] = system: SW-620 colon
# [22] = system: K-562 leukemia
# [23] = system: NCI-H522 lung
# [24] = system: MOLT-4 leukemia
# [25] = system: HCT-15 colon
# [26] = system: BT-549 breast
# [27] = system: HCC-2998 colon
# [28] = system: LOX IMVI melanoma
# [29] = system: MALME-3M melanoma
# [30] = system: 786-0 renal
# [31] = system: KM12 colon
# [32] = system: U251 CNS
# [33] = system: SF-268 CNS
# [34] = system: RPMI-8226 leukemia
# [35] = system: NCI-H23 lung
# [36] = system: SN12C renal
# [37] = system: ACHN renal
# [38] = system: T-47D breast
# [39] = system: MDA-MB-231 breast
# [40] = system: A549 NSCLC
# [41] = system: HOP-62 NSCLC
# [42] = system: MDA-MB-435
# [43] = system: UO-31 renal
# [44] = system: M14 melanoma
# [45] = system: CAKI-1 renal
# [46] = system: OVCAR-3 ovarian
# [47] = system: SK-MEL-2 melanoma
# [48] = system: OVCAR-8 ovarian
# [49] = system: MDA-N
# [50] = system: OVCAR-4 ovarian
# [51] = system: SF-539 CNS
# [52] = system: UACC-62 melanoma
# [53] = system: SK-OV-3 ovarian
# [54] = system: SK-MEL-28 melanoma
# [55] = system: SNB-75 CNS
# [56] = system: SK-MEL-5 melanoma
# [57] = system: IGROV1 ovarian
compound,measurement,setting,value
CC(C)(/C=N\O)NO,TGI,[1],> 10 µM
same,TGI,[2],> 10 µM
same,TGI,[3],> 10 µM
same,TGI,[4],> 10 µM
same,TGI,[5],> 10 µM
same,TGI,[6],> 10 µM
same,TGI,[7],> 10 µM
same,TGI,[8],> 10 µM
same,TGI,[9],> 10 µM
same,TGI,[10],> 10 µM
same,TGI,[11],> 10 µM
same,TGI,[12],> 10 µM
same,TGI,[13],> 10 µM
same,TGI,[14],> 10 µM
same,TGI,[15],> 10 µM
same,TGI,[16],> 10 µM
same,TGI,[17],> 10 µM
same,TGI,[18],> 10 µM
same,TGI,[19],> 10 µM
same,TGI,[20],> 10 µM
same,TGI,[21],> 10 µM
same,TGI,[22],> 10 µM
same,TGI,[23],> 10 µM
same,TGI,[24],> 10 µM
same,TGI,[25],> 10 µM
same,TGI,[26],> 10 µM
same,TGI,[27],> 10 µM
same,TGI,[28],> 10 µM
same,TGI,[29],> 10 µM
same,TGI,[30],> 10 µM
same,TGI,[31],> 10 µM
same,TGI,[32],> 10 µM
same,TGI,[33],> 10 µM
same,TGI,[34],> 10 µM
same,TGI,[35],> 10 µM
same,TGI,[36],> 10 µM
same,TGI,[37],> 10 µM
same,TGI,[38],> 10 µM
same,TGI,[39],> 10 µM
same,TGI,[40],> 10 µM
same,TGI,[41],> 10 µM
same,TGI,[42],> 10 µM
same,TGI,[43],> 10 µM
same,TGI,[44],> 10 µM
same,TGI,[45],> 10 µM
same,TGI,[46],> 10 µM
same,TGI,[47],> 10 µM
same,TGI,[48],> 10 µM
same,TGI,[49],> 10 µM
same,TGI,[50],> 10 µM
COc1cc(Br)cc2cc(C3=CSC4=NCCN34)c(=O)oc12,TGI,[1],36.7 µM
same,TGI,[2],33 µM
same,TGI,[3],> 100 µM
same,TGI,[4],35.8 µM
same,TGI,[5],54.5 µM
same,TGI,[6],33.4 µM
same,TGI,[7],40.3 µM
same,TGI,[8],34.6 µM
same,TGI,[51],37.4 µM
same,TGI,[52],33.6 µM
same,TGI,[9],34.7 µM
same,TGI,[10],77.6 µM
same,TGI,[11],63.4 µM
same,TGI,[12],34.8 µM
same,TGI,[13],32.2 µM
same,TGI,[14],32.3 µM
same,TGI,[15],35.6 µM
same,TGI,[16],65.8 µM
same,TGI,[53],66.2 µM
same,TGI,[17],56.8 µM
same,TGI,[18],43.5 µM
same,TGI,[19],33 µM
same,TGI,[21],49.1 µM
same,TGI,[22],> 100 µM
same,TGI,[24],69.5 µM
same,TGI,[25],37.2 µM
same,TGI,[26],42.2 µM
same,TGI,[28],33.7 µM
same,TGI,[30],32.7 µM
same,TGI,[31],39 µM
same,TGI,[32],32.6 µM
same,TGI,[34],55.3 µM
same,TGI,[54],59.4 µM
same,TGI,[35],40.8 µM
same,TGI,[36],32 µM
same,TGI,[37],80.6 µM
same,TGI,[38],42.2 µM
same,TGI,[39],36 µM
same,TGI,[40],50.8 µM
same,TGI,[41],34.9 µM
same,TGI,[42],33.9 µM
same,TGI,[43],35.6 µM
same,TGI,[55],43.3 µM
same,TGI,[44],49.4 µM
same,TGI,[45],> 100 µM
same,TGI,[56],35.3 µM
same,TGI,[46],33.1 µM
same,TGI,[47],40 µM
same,TGI,[57],32.5 µM
same,TGI,[48],34.4 µM
same,TGI,[49],34.4 µM
same,TGI,[50],37.2 µM
